Reference: US4877881A, “Process of preparing pyrazoles, isoxazoles and analogs thereof having activity as 5-lipoxygenase inhibitors” (Warner-Lambert Company, priority 1988, dated 1989)

How the values were obtained:
5-lipoxygenase [1] = biological target: T1, 5-lipoxygenase (Homo sapiens, UniProt P09917); assay: 5-Lipoxygenase Assay Using Isolated Human Leukocytes (5LOA2), 5-HETE formation; type: cell-based; settings: inhibition of 5-HETE formation, arachidonic acid 20 μM, A23187 10 μM, read-out: 5-LO(IC50 in μM)
T1 construct: The formation of 5-HETE in human leukocytes is considered a measure of 5-lipoxygenase activity; endogenous in cells; host or cells: leukocytes isolated from fresh human blood
T1 sequence (P09917 1-674): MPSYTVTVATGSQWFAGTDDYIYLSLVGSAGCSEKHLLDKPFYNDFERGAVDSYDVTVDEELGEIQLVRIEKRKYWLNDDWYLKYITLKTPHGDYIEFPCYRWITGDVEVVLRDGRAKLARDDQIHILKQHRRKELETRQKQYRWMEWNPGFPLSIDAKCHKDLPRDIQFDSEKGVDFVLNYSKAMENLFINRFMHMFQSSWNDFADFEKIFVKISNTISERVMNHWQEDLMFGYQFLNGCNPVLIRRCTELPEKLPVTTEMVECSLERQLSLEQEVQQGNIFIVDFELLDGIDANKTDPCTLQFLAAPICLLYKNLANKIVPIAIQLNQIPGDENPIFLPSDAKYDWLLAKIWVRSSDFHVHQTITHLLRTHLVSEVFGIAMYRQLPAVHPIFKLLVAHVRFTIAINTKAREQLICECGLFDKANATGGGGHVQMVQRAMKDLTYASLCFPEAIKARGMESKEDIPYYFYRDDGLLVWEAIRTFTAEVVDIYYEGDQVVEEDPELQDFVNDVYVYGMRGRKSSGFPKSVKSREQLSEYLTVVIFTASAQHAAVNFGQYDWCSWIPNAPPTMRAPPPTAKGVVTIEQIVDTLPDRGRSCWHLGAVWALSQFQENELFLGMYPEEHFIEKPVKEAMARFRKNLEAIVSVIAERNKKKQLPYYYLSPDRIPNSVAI
Experimental: 5-Lipoxygenase Assay Using Isolated Human Leukocytes (5LOA2)
The formation of 5-HETE in human leukocytes is considered a measure of 5-lipoxygenase activity. The protocol is described in the following.
Fresh heparinized or EDTA treated human blood is mixed with 6% dextran-3% dextrose in isotonic saline in the ratio 0.25 ml dextran solution per 1.0 ml blood. After mixing the blood is allowed to sit at room temperature for about 90 minutes while the RBC's settle. During this period, the plasma is removed with a plastic pipette to nalgens tubes.
The pellet, consisting of leukocytes and erythrocytes, is treated with 10 ml 0.87% ammonium chloride at room temperature for four minutes, lysing the red cells. At the end of four minutes the cells are diluted with a 2x volume of phosphate buffered saline, pH 7.4, and centrifuged for ten minutes. The cells are washed three times with the phosphate buffered saline. Any of the pelleted cell matter which is not easily resuspended is discarded during the washings--the material contains platelets (12-lipoxygenase activity).
After washing, the cells are resuspended in phosphate buffered saline containing 1.0 mM 'calcium and 0.5 mM magnesium. After counting, the cells are diluted to 1.5-2.0×10^7 leukocytes per milliliter.
To each polypropylene reaction tube is added 0.48 ml leukocytes in Ca-Mg phosphate buffered saline, pH 7.4; 1-5 μl test compound dissolved in DMSO and buffer; or DMSO for control tubes.
The tubes preincubate at 37° C. for five minutes.
The reaction is started by adding 20 μl of the following, 0.5 μl, 20 mM arachidonic acid--final concentration=20 μM; 1 μl, 5 mM calcium ionophore A23187--final concentration=10 μM; and 18.5 μl buffer.
The reaction proceeds for five minutes, then is stopped by adding 0.5 ml, 0.5 mM ice-cold Tris buffer, pH 8.0. The tubes are chilled on ice for ten minutes and then extracted three times with a total of 3.5 ml ethyl acetate (3.0 ml removed).
The tubes can be stored at this point. For extended storage, the tubes should be filled with nitrogen.
The ethyl acetate is evaporated with a Sorvall Speed-Vac. The residue is dissolved in ethanol. The tubes can also be stored at this point at -20° C. under nitrogen.
A portion of the ethanol solution is injected into the HPLC system for 5-HETE quantitation.
Injections are made automatically with a Waters WISP 710B. The pump is a Spectra Physics SP8700. […] An RP C-18 column is used. The solvent system is isocratic; the solvent is 70% methanol and 30% 0.01M sodium acetate, pH 5.7, pumped at 1.0 ml/min. […] Using a 15 cm Alltech Nucleosil C-18 5 μM column provides for a sample turnaround time of about 16 minutes.

cyclooxygenase [2] = biological target: T2, cyclooxygenase (Bos taurus, UniProt O62664); assay: Cyclooxygenase Enzyme Assay, bovine seminal vesicle (BSV), PGE2 formation; type: biochemical; settings: bovine seminal vesicle powder; 100 μM arachidonic acid, 20 minutes
T2 construct: The assay consists of incubating 2 mg bovine seminal vesicle powder; from tissue; host or cells: bovine seminal vesicle powder
T2 sequence (O62664 25-600): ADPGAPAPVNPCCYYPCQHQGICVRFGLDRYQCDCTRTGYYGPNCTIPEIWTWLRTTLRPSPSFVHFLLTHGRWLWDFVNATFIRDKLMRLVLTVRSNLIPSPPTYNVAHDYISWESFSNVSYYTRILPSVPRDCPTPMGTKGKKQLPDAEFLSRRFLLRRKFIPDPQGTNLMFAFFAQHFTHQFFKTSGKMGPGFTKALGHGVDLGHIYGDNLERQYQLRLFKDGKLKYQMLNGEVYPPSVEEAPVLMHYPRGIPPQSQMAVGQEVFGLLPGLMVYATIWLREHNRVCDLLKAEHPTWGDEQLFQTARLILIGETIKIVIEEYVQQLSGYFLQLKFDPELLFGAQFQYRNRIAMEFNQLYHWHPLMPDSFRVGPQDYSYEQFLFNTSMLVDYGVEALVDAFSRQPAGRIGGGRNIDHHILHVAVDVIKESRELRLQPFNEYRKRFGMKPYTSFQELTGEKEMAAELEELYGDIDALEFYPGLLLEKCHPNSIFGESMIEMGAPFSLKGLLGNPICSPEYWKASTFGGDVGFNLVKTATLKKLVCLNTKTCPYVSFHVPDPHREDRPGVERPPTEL
Experimental: Cyclooxygenase Enzyme Assay
Additionally, inhibition of cyclooxygenase is considered a measure of relevance to the pathophysiology of the above noted diseases.
The assay consists of incubating 2 mg bovine seminal vesicle powder with 2 mM epinephrine, 2.5 mM reduced glutathione, 100 μM arachidonic acid, and the test agent for 20 minutes. The reaction mixture is acidified and extracted with ethyl acetate (3×1.0 ml) and the pooled extract is evaporated to dryness using a Speed Vac Concentrator or under a stream of nitrogen. The residue was dissolved in ethanol.

5-lipoxygenase [3] = biological target: T3, 5-lipoxygenase (Rattus norvegicus, UniProt P12527); assay: ARBL Whole Cell 5-Lipoxygenase Assay in RBL-1 cells (LTB4 RIA); type: cell-based; settings: RBL-1 intact cell 5-lipoxygenase; A23187 5 μM
T3 construct: ARBL/ARBC Whole Cell 5-Lipoxygenase and Cyclooxygenase Assays; endogenous in cells; host or cells: RBL-1 rat basophilic leukemia cells (American Type Culture Collection)
T3 sequence (P12527 1-673): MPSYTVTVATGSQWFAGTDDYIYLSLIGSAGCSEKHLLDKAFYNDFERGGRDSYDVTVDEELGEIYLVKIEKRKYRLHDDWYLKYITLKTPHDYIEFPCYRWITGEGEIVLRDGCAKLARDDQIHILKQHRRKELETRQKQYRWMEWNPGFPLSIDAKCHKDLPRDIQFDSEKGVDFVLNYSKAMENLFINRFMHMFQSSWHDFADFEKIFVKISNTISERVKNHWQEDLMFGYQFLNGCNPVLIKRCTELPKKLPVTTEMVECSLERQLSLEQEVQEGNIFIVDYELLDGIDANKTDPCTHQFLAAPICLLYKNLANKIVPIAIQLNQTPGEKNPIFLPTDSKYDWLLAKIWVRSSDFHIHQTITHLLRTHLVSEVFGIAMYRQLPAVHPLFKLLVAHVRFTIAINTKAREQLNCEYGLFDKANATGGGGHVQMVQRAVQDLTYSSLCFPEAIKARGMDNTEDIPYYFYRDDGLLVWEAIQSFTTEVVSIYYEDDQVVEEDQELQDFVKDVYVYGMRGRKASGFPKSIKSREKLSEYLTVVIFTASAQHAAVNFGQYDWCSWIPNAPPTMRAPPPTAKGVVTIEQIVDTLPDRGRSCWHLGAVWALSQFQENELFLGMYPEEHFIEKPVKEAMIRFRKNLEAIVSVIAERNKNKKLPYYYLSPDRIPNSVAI
Experimental: (§1) ARBL/ARBC Whole Cell 5-Lipoxygenase and Cyclooxygenase Assays
(§2) The rat basophilic leukemia cell line (RBL-1) was obtained from the American Type Culture Collection (Rockville, Md.).
(§3) Radioimmuno assay (RIA) kits of LTB4 and PGF2α were obtained from Amersham (Arlington Heights, Ill.) and Seragen (Boston, Mass.) respectively.
(§4) All tissue culture media were obtained from GIBO (Gran Island, N.Y.).
(§5) RBL-1 cells were grown in culture (suspension) in Eagle's minimum essential medium supplemented with 12% fetal bovine serum and 1:100 antibiotic-antimycotic mixture at 37° C. in an incubator supplied with air-5% carbon dioxide. Cells were harvested by centrifugation. They were washed with cold phosphate buffered saline pH 7.4 (PBS; NaCl, 7.1 g; Na2 HOP4, 1.15 g; KH2 PO4, 0.2 g; and KCl, 0.2 g/L). […] Calcium ionophore A23187 (5 μM) was added and cells were incubated for seven minutes at 37° C. The reaction was stopped by chilling the tubes in ice for ten minutes. Cells were separated by centrifugation and the supernatant was stored at -20°. Aliquots (100 μl) were analyzed for LTB4 and PGF2α using radioimmuno assay kits as provided by the supplier.

cyclooxygenase [4] = biological target: T4, cyclooxygenase (Rattus norvegicus, UniProt Q63921); assay: ARBC Whole Cell Cyclooxygenase Assay in RBL-1 cells (PGF2α RIA); type: cell-based; settings: RBL-1 intact cell cyclooxygenase; A23187 5 μM
T4 construct: RBL-1 intact cell cyclooxygenase IC50 values; endogenous in cells; host or cells: RBL-1 rat basophilic leukemia cells (American Type Culture Collection)
T4 sequence (Q63921 27-602): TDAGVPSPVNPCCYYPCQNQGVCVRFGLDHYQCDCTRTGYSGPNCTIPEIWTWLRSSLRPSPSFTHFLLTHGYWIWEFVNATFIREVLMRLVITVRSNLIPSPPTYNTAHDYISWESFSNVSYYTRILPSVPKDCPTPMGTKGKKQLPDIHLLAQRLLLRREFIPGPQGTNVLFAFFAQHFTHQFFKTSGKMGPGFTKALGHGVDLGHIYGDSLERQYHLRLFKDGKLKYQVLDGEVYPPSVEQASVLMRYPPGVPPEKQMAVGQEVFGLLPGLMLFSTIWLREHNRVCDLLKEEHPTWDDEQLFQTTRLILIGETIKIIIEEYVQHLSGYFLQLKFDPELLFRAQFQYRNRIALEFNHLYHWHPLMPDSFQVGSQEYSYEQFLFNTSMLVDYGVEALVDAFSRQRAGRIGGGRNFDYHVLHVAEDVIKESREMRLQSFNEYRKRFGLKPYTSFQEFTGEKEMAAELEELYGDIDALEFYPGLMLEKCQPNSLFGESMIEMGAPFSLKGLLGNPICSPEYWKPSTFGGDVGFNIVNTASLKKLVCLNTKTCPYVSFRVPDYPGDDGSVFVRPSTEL
Experimental: as §1, §2, §3, §4, §5

SMILES | IC50 (5-lipoxygenase [1]) | IC50 (cyclooxygenase [2]) | IC50 (5-lipoxygenase [3]) | IC50 (cyclooxygenase [4])
COc1cc(CCc2cc(C)n[nH]2)ccc1O [Example 6, 3-[β-(4'-Hydroxy-3'-methoxyphenyl)ethyl]-5-methylpyrazole] | > 20 µM |  |  | 
COc1cc(CCc2cc(CCc3ccc(O)c(OC)c3)[nH]n2)ccc1O [Example 2, 3,5-Bis[β-(4'-hydroxy-3'-methoxyphenyl)ethyl]pyrazole] | 53 µM | 67 µM |  | 
COc1cc(C=Cc2cc(-c3ccccc3)[nH]n2)ccc1O [Example 4, 3-[β-(4'-Hydroxy-3'-methoxyphenyl)ethenyl]-5-phenylpyrazole] | 4.3 µM | 40 µM |  | 
Oc1ccc(CCc2cc(CCc3ccc(O)cc3)[nH]n2)cc1 [Example 3, 3,5-Bis[β-(4'-hydroxyphenyl)ethyl]pyrazole] | 15 µM | 44 µM |  | 
COc1ccc(C=Cc2cc(C)[nH]n2)cc1O [Example 8, 3-[β-(4'-Methoxy-3'-hydroxyphenyl)ethenyl]-5-methylpyrazole] | > 20 µM |  |  | 
CCOC(=O)c1cc(C=Cc2ccc(O)c(OC)c2)n[nH]1 [Example 10, Ethyl-3-[β-(3-methoxy-4-hydroxyphenyl)ethenyl]-1H-pyrazole-5-carboxylate] | 18 µM |  | 5.2 µM | 11 µM
CCc1cc(C=Cc2ccc(O)c(OC)c2)n[nH]1 [Example 9, 3-[β-(4'-Hydroxy-3'-methoxyphenyl)ethenyl]-5-ethylpyrazole] | 7.5 µM | 56 µM |  | 
COc1cc(CCc2cc(CCc3ccc(O)c(OC)c3)on2)ccc1O [Example 12, 3,5-Bis[β-(4'-hydroxy-3'-methoxyphenyl)ethyl]isoxazole] | 29 µM | 31 µM |  | 
